Here are results for six compounds from patent US6593342B1, “Pharmaceutical compositions comprising 2-quinolones” (Laboratoire L. Lafon, priority 1998, dated 2003).

In one data set the test system is J82. Briefly: MTT test, J82. Format: cell-based. The conditions noted are these: Homo sapiens, 10^−5 M, 72 hours, control = 100%, mean ± SEM, read-out: average optical density (MTT), percentage relative to control. Put shortly: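 Human bladder cancer cells grown in MEM/HEPES with 5% FCS were exposed for 72 h at 37 °C to compounds at 10^−5 to 10^−10 M, then to 1 mg/ml MTT for 3 h. Formazan dissolved in DMSO was read at 570 nm against 630 nm and expressed as % of solvent-control optical density.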

A further data set has as its system SW1088. Briefly: MTT test, SW1088. Format: cell-based. The conditions noted are these: Homo sapiens, 10^−5 M, 72 hours, control = 100%, mean ± SEM, read-out: average optical density (MTT), percentage relative to control. Put shortly:
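SW1088 astrocytoma cells, seeded 24 h, then exposed to compound (10^−5 to 10^−10 M) for 72 h at 37 °C in MEM with 5% FCS. Viability by MTT reduction (1 mg/ml, 3 h), formazan dissolved in DMSO, absorbance at 570/630 nm. Expressed as % of solvent-control optical density.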

Another data set relates to U-373MG. Briefly: MTT test, U-373MG. It counts as cell-based. The conditions noted are these: Homo sapiens, U373 MG, 10^−5 M, 72 hours, control = 100%, mean ± SEM, read-out: average optical density (MTT), percentage relative to control. In a few lines:
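Human glioblastoma lines in MEM/25 mM HEPES with 5% FCS, seeded 24 h, then exposed 72 h at 37 °C to compounds at 10^−5 to 10^−10 M or solvent. MTT (1 mg/ml) 3 h, formazan dissolved in DMSO, absorbance 570/630 nm; optical density expressed as % of solvent control.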

A short description of data set [1]: Determination of the maximum tolerated dose (MTD). Conditions: mouse, in vivo, ip; B6D2F1/Jico mice; single intraperitoneal administration, 2.5 to 160 mg/kg; survival over 14 days.
A further data set deals with HCT-15. Briefly: MTT test, HCT-15. Format: cell-based. Conditions: Homo sapiens, 10^−5 M, 72 hours, control = 100%, mean ± SEM, read-out: average optical density (MTT), percentage relative to control. Put shortly:
(§1)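 Human colorectal LoVo and HCT-15 cells in MEM/25 mM HEPES with 5% FCS were seeded, grown 24 h, then exposed 72 h at 37 °C to compounds at 10^−5 to 10^−10 M. Viability was read by MTT reduction (3 h), formazan dissolved in DMSO and read at 570/630 nm, expressed as % of solvent control.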
A general note: Tetrazolium assays rely on reduction of a dye to a coloured formazan, in cell work by metabolically active cells.

A further data set has as its system A549. Description: MTT test, A549. Format: cell-based. The conditions noted are these: Homo sapiens, 10^−5 M, 72 hours, control = 100%, mean ± SEM, read-out: average optical density (MTT), percentage relative to control. Put shortly: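 Cells seeded at 20 000–50 000/ml and allowed 24 h before exposure to compound (10^−5 to 10^−10 M) or solvent for 72 h at 37° C, 5% CO2. Viability measured by MTT reduction (1 mg/ml, 3 h), formazan dissolved in DMSO, read at 570/630 nm. Values are optical density as % of solvent control.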

The next data set concerns LoVo. Briefly: MTT test, LoVo. It counts as cell-based. Conditions: Homo sapiens, 10^−5 M, 72 hours, control = 100%, mean ± SEM, read-out: average optical density (MTT), percentage relative to control. Put shortly: as §1
The next data set relates to T-47D. Briefly: MTT test, T-47D. It counts as cell-based. Conditions: Homo sapiens, T47D, 10^−5 M, 72 hours, control = 100%, mean ± SEM, read-out: average optical density (MTT), percentage relative to control. Put shortly: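 T-47D and MCF7 cells in MEM/25 mM HEPES with 5% FCS, treated 72 h at 37 °C with compound at 10^−5 to 10^−10 M, 24 h after seeding. MTT (1 mg/ml) added for 3 h, formazan dissolved in DMSO, read at 570/630 nm. Optical density expressed as % of solvent control.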

SMILES strings stand for the structures.

As for `COc1ccc(-c2cc3c(OC)cc(OC)cc3[nH]c2=O)cc1` [CRL8246, 5,7-Dimethoxy-3-(4-methoxyphenyl)-1,2-dihydro-2-quinolinone], the viability at 10 µM with J82 amounted to 87.6 ± 2.2%; in the data set on SW1088, 108 ± 1.1%; in the data set on U-373MG it was 96.6 ± 1.2%; in the data set on HCT-15, 97.2 ± 5.1%; in the data set on A549, 113 ± 2.1%; in the data set on LoVo, 109 ± 7%. For the same compound, the viability at 10 µM in the data set with T-47D amounted to 96 ± 2.6%. In data set [1], this compound showed an MTD at 14 day of more than 160 mg/kg.

Take `COc1ccc(-c2cc3c(OC)cc(OC)cc3n(CCC#N)c2=O)cc1` [CRL8247, 3-[5,7-Dimethoxy-3-(4-methoxyphenyl)-2-oxo-1,2-dihydro-1-quinolinyl]propanenitrile]: the viability at 10 µM came to 55 ± 2.3% in the data set with J82; 85.8 ± 3.6% in the data set with SW1088; 68.7 ± 2.8% with U-373MG; 87.4 ± 2.5% in the data set with HCT-15; 81.3 ± 1.9% in the data set with A549; 66.4 ± 2.5% in the data set on LoVo. Besides, the viability at 10 µM in the data set with T-47D was 58.3 ± 1.4%. For the same compound, the MTD at 14 day in data set [1] was more than 160 mg/kg.

For `COc1ccc(-c2cc3c(OC)cc(OC)cc3n(CCc3nnn[nH]3)c2=O)cc1` [CRL8256, 1-[2-(1H-1,2,3,4-Tetrazol-5-yl)ethyl]-5,7-dimethoxy-3-(4-methoxyphenyl)-1,2-dihydro-2-quinolinone], the viability at 10 µM with J82 amounted to 77.8 ± 0.8%; in the data set with SW1088, 72.1 ± 3.3%; in the data set on U-373MG it was 76.1 ± 2.6%; in the data set with HCT-15, 73.9 ± 3.6%; in the data set on A549, 56.5 ± 3.7%; in the data set on LoVo, 93 ± 2.3%. In addition, the viability at 10 µM in the data set with T-47D stood at 77.5 ± 3.6%. For the same compound, in data set [1], the MTD at 14 day is more than 160 mg/kg.

In the case of `CCN(CC)C(=O)CCn1c(=O)c(-c2ccc(OC)cc2)cc2c(OC)cc(OC)cc21` [CRL8283, N,N-Diethyl-3-[5,7-dimethoxy-3-(4-methoxy-phenyl)-2-oxo-1,2-dihydro-1-quinolinyl]propanamide], the viability at 10 µM with J82 was found to be 71.6 ± 2.2%; in the data set with SW1088 it was 84.7 ± 3.1%; with U-373MG it was 93.4 ± 1.5%; in the data set on HCT-15, 58.2 ± 4.3%; in the data set on A549, 63.6 ± 4.2%; in the data set on LoVo, 97.3 ± 3.6%. For the same compound, the viability at 10 µM with T-47D amounted to 81 ± 3.1%. The compound also yielded a maximum tolerated dose (MTD) at 14 day in data set [1] of more than 160 mg/kg.

Take `CCN(CC)C(=O)Cn1c(=O)c(-c2ccc(OC)cc2)cc2c(OC)cc(OC)cc21` [CRL8315, N,N-Diethyl-2-[5,7-dimethoxy-3-(4-methoxy-phenyl)-2-oxo-1,2-dihydro-1-quinolinyl]acetamide]: the viability at 10 µM in the data set with J82 turned out to be 65.9 ± 1.3%; with SW1088, 89.1 ± 0.6%; in the data set with U-373MG it was 68.9 ± 2.2%; with HCT-15 it was 87.9 ± 3.3%; in the data set with A549 it was 76.1 ± 2.4%; in the data set with LoVo it was 78.9 ± 2.1%. Besides, in the data set with T-47D, the viability at 10 µM amounted to 101 ± 2.5%. Moreover, the MTD at 14 day in data set [1] was more than 160 mg/kg.

In the case of `COc1ccc(-c2cc3c(OC)cc(OC)cc3n(CCN(C)C)c2=O)cc1` [CRL8316, 1-[2-(Dimethylamino)ethyl]-5,7-dimethoxy-3-(4-methoxyphenyl)-1,2-dihydro-2-quinolinone], the viability at 10 µM is 26.9 ± 0.9% in the data set on J82; 107 ± 2% in the data set with SW1088; 89.8 ± 2.9% in the data set on U-373MG; 79.8 ± 2.9% in the data set on HCT-15; 84.2 ± 1.9% in the data set with A549; 73.9 ± 2.1% in the data set with LoVo. Further, in the data set on T-47D, the viability at 10 µM turned out to be 68.8 ± 2.4%. The same compound registered an MTD at 14 day in data set [1] of more than 160 mg/kg.

A word on the MTD: it is the highest dose tested that stayed within the study's limit of toxicity. A lower MTD goes with poorer tolerability.
